Numbers after ± are expanded uncertainties.

These results are taken from the NIST ThermoML archive (doi:10.1021/je301014d).

For series [1] the following is noted: Crystal; DTA.
A short description of series [2]: Molar enthalpy of transition or fusion. To be noted: Crystal; DSC.

For the molecule `C[C@H]1OC(=O)[C@@H](C)OC1=O` [(3R,6R)-3,6-dimethyl-1,4-dioxane-2,5-dione], in series [1], the Normal melting temperature was 97.23 ± 1.1 °C. Further, in series [2], the “Molar enthalpy of transition or fusion” value came out at 3.87 ± 0.0956 kcal/mol.
On the same counts, the results for `C[C@@H]1OC(=O)[C@H](C)OC1=O` [(3S,6S)-3,6-dimethyl-1,4-dioxane-2,5-dione] are 97.82 ± 1.1 °C and 3.87 ± 0.0956 kcal/mol.
